Literature values in US8137734B2, “Preparation of controlled release skeletal muscle relaxant dosage forms” (Aptalis Pharmatech, Inc., priority 2008, dated 2012).

- absorption (after oral administration): well absorbed
- half-life (elimination): one to three
Compound: CN(C)CCC=C1c2ccccc2C=Cc2ccccc21 [Cyclobenzaprine]
